{"source": "patent US11957683B2", "about": "“Bicyclic compounds” (Aligos Therapeutics, Inc., priority 2021, dated 2024)", "key": {"HBV": {"test_system": "HBV", "assay": "HBV-DNA antiviral assay using HepG2.117 cells", "assay_type": "cell-based, HBV genotype D", "conditions": "Hepatitis B virus", "description": "(§1) The following assay procedure describes the HBV antiviral assay, using HepG2.117 cells, which carry a stably integrated genotype D HBV genome under the control of a Tet-off promoter, and intracellular HBV DNA quantification as endpoint. Cell viability is assessed in parallel by measuring the intracellular ATP content using CellTiter-Glo 2.0 (Promega).\nOn day 0, HepG2.117 cells (which are maintained in routine cell culture with doxycycline present in the medium at a final concentration of 1 μg/mL) are seeded in 96-well plates (white with clear bottom) at a density of 2.0×10^4 cells/well (0.1 mL/well) in medium without doxycycline to induce pgRNA transcription and subsequent formation of HBV particles. The cells are incubated at 37° C. and 5% CO2.\n(§2) On day 1, medium is removed from each well, the test articles are diluted in culture medium without doxcycyline and 100 μL was added to cell culture wells (9 concentrations, 4-fold dilution). For each plate, 6 untreated (merely DMSO) wells are included. The final concentration of DMSO in the culture medium is 2%. Each plate is prepared in duplicate (one for HBV DNA extraction, one for CellTiter-Glo 2.0 measurement). The cells are incubated at 37° C. and 5% CO2 for 3 days.\n(§3) On day 4, cell viability is assessed using CellTiter-Glo 2.0 and cell lysates are prepared for HBV DNA extraction and subsequent quantification by qPCR.\nMedium is removed from each well and 100 μL of 0.33% NP-40 in H2O was added to each well. Plates are sealed, incubated at 4° C. for 5 mins, vortexed extensively and centrifuged briefly. Next, 35 μL of lysate is added to 65 μL QuickExtract DNA Extraction Solution (Epicentre) in a PCR plate for each well. PCR plate is incubated at 65° C. for 6 mins, 98° C. for 2 mins and finally cooled to 4° C. HBV DNA is then quantified by qPCR with HBV-specific primers and probes as specified in Table 2 using the Bio-Rad SSOAdvanced Universal Probes Supermix on a CFX96 machine (Bio-Rad). The PCR cycle program consisted of 95° C. for 3 mins, followed by 40 cycles at 95° C. for 10 sec and 60° C. for 30 sec.\nA DNA standard is prepared by dilution of an IDT gBlock corresponding to the amplicon with concentrations ranging from 10^2 to 10^8 copies/input (i.e., per 4 μL) and used to generate a standard curve by plotting Cq values vs. HBV DNA standard concentration. The quantity of HBV DNA in each sample is determined by interpolating from the standard curve.\n(§4) Cell viability is calculated as follows: % Cell viability=(luminescence value of test sample)/(average luminescence value of 2% DMSO control)×100%. HBV DNA inhibition was calculated as follows: 100−(HBV DNA copy number of test sample)/(average HBV DNA copy number of 2% DMSO control)×100%. No normalization to entecavir is required due to the excellent dynamic window of this assay. The CC50, EC50 and EC90 values were determined by dose-response curves fitted using non-linear regression."}, "[1]": {"assay": "Cell viability by CellTiter-Glo 2.0 (intracellular ATP) in HepG2.117 cells", "assay_type": "cell-based", "conditions": "human, CellTiter-Glo 2.0, HepG2.117 cells, 3 days incubation", "description": "as §1, §2, §3\nUsing the other plates, the cell viability is quantified by CellTiter-Glo 2.0 according to the manufacturer's manual. In brief, 100 μL of reagent solution is added to the culture plates and shaken for 2′. The plates are incubated at rt for 10 min and luminescence signal is subsequently measured on a VarioSkan Lux (ThermoFisher) plate reader.\nas §4"}, "[2]": {"conditions": "72 h, HBV DNA inhibition, intracellular HBV DNA by qPCR, HepG2.117 cells, 3 days incubation, read-out: EC50"}}, "note": "pEC50: −log10 of the molar value. Like-named read-outs stand apart in the source and are kept apart here."}
{"smiles": "C=C[C@H](C)Nc1nc2c(c(=O)n1-c1ccc3c(c1)nnn3C)C[C@@H](C)N(C(=O)c1ccc(Br)c(C(F)(F)F)c1)C2", "note": "[Compound 13, (R)-7-(4-bromo-3-(trifluoromethyl)benzoyl)-2-(((S)-but-3-en-2-yl)amino)-6-methyl-3-(1-methyl-1H-benzo[d][1,2,3]triazol-5-yl)-5,6,7,8-tetrahydropyrido[3,4-d]pyrimidin-4(3H)-one]", "values": [{"measurement": "pEC50", "setting": "HBV; [2]", "result": "> 7.30"}, {"measurement": "CC50 at 3 days", "setting": "[1]", "result": 48, "unit": "µM"}]}
{"smiles": "C=C[C@H](C)Nc1nc2c(c(=O)n1-c1ccc(-c3cnn(C)c3)cn1)C[C@@H](C)N(C(=O)c1ccc(Br)c(C(F)(F)F)c1)C2", "note": "[Compound 37, (6R)-7-[4-bromo-3-(trifluoromethyl)benzoyl]-6-methyl-2-[[(1S)-1-methylallyl]amino]-3-[5-(1-methylpyrazol-4-yl)-2-pyridyl]-6,8-dihydro-5H-pyrido[3,4-d]pyrimidin-4-one]", "values": [{"measurement": "pEC50", "setting": "HBV; [2]", "result": "> 7.30"}, {"measurement": "CC50 at 3 days", "setting": "[1]", "result": "> 50", "unit": "µM"}]}
{"smiles": "C=CC(COC)Nc1nc2c(c(=O)n1-c1ccc(C(=O)NC)cc1)C[C@@H](C)N(C(=O)c1ccc(Br)c(C(F)(F)F)c1)C2", "note": "(some centres unmarked) [Compound 16]", "values": [{"measurement": "pEC50", "setting": "HBV; [2]", "result": "> 7.30"}, {"measurement": "CC50 at 3 days", "setting": "[1]", "result": "> 0.5", "unit": "µM"}]}
{"smiles": "C=C[C@H](C)Nc1nc2c(c(=O)n1-c1ccc3c(ncn3C)n1)C[C@@H](C)N(C(=O)c1ccc(Br)c(C(F)(F)F)c1)C2", "note": "[Compound 40, (6R)-7-[4-bromo-3-(trifluoromethyl)benzoyl]-6-methyl-2-[[(1S)-1-methylallyl]amino]-3-(1-methylimidazo[4,5-b]pyridin-5-yl)-6,8-dihydro-5H-pyrido[3,4-d]pyrimidin-4-one]", "values": [{"measurement": "pEC50", "setting": "HBV; [2]", "result": "> 7.30"}, {"measurement": "CC50 at 3 days", "setting": "[1]", "result": "> 50", "unit": "µM"}]}
{"smiles": "C=C[C@H](C)Nc1nc2c(c(=O)n1-c1ccc(-c3nnc(C)[nH]3)cc1)C[C@@H](C)N(C(=O)c1ccc(Br)c(C(F)(F)F)c1)C2", "note": "[Compound 4a, (R)-7-(4-bromo-3-(trifluoromethyl)benzoyl)-2-(((S)-but-3-en-2-yl)amino)-6-methyl-3-(4-(5-methyl-4H-1,2,4-triazol-3-yl)phenyl)-5,6,7,8-tetrahydropyrido[3,4-d]pyrimidin-4(3H)-one]", "values": [{"measurement": "pEC50", "setting": "HBV; HepG2.117, 72 h", "result": "> 7.30"}, {"measurement": "CC50 at 3 days", "setting": "[1]", "result": "> 0.5", "unit": "µM"}]}
{"smiles": "C=CC(Nc1nc2c(c(=O)n1-c1ccc(C(=O)NC)cc1)C[C@@H](C)N(C(=O)c1ccc(Br)c(C(F)(F)F)c1)C2)C1CCC1", "note": "(some centres unmarked) [Compound 15]", "values": [{"measurement": "pEC50", "setting": "HBV; [2]", "result": "> 7.30"}, {"measurement": "CC50 at 3 days", "setting": "[1]", "result": "> 0.5", "unit": "µM"}]}
{"smiles": "C=C[C@H](C)Nc1nc2c(c(=O)n1-c1ccc(C(=O)NC)nn1)C[C@@H](C)N(C(=O)c1ccc(Br)c(C(F)(F)F)c1)C2", "note": "[Compound 30, 6-((R)-7-(4-bromo-3-(trifluoromethyl)benzoyl)-2-(((S)-but-3-en-2-yl)amino)-6-methyl-4-oxo-5,6,7,8-tetrahydropyrido[3,4-d]pyrimidin-3(4H)-yl)-N-methylpyridazine-3-carboxamide]", "values": [{"measurement": "pEC50", "setting": "HBV; [2]", "result": "> 7.30"}, {"measurement": "CC50 at 3 days", "setting": "[1]", "result": "> 50", "unit": "µM"}]}
{"smiles": "C=C[C@H](C)Nc1nc2c(c(=O)n1-c1ncc(C(=O)NC)cn1)C[C@@H](C)N(C(=O)c1ccc(Br)c(C(F)(F)F)c1)C2", "note": "[Compound 43, 2-[(6R)-7-[4-bromo-3-(trifluoromethyl)benzoyl]-6-methyl-2-[[(1S)-1-methylallyl]amino]-4-oxo-6,8-dihydro-5H-pyrido[3,4-d]pyrimidin-3-yl]-N-methyl-pyrimidine-5-carboxamide]", "values": [{"measurement": "pEC50", "setting": "HBV; [2]", "result": "> 7.30"}, {"measurement": "CC50 at 3 days", "setting": "[1]", "result": "> 50", "unit": "µM"}]}
{"smiles": "C=CCN(C)c1nc2c(c(=O)n1-c1ccc(C(=O)NC)cc1)C[C@@H](C)N(C(=O)c1ccc(Br)c(C(F)(F)F)c1)C2", "note": "[Compound 6]", "values": [{"measurement": "pEC50", "setting": "HBV; [2]", "result": "> 7.30"}, {"measurement": "CC50 at 3 days", "setting": "[1]", "result": "> 0.5", "unit": "µM"}]}
{"smiles": "C=C[C@@H](C)Nc1nc2c(c(=O)n1-c1ccc3c(c1)ncn3C)C[C@@H](C)N(C(=O)c1ccc(Br)c(C(F)(F)F)c1)C2", "note": "[Compound 18, (R)-7-(4-bromo-3-(trifluoromethyl)benzoyl)-2-(((R)-but-3-en-2-yl)amino)-6-methyl-3-(1-methyl-1H-benzo[d]imidazol-5-yl)-5,6,7,8-tetrahydropyrido[3,4-d]pyrimidin-4(3H)-one]", "values": [{"measurement": "pEC50", "setting": "HBV; [2]", "result": "> 7.30"}, {"measurement": "CC50 at 3 days", "setting": "[1]", "result": "> 0.5", "unit": "µM"}]}
